Assay results taken from ChEMBL document CHEMBL3259548, “Design, synthesis and biological evaluation of novel isoniazid derivatives with potent antitubercular activity” (Eur J Med Chem, 2014).
≈ marks a conversion by molar mass, not a printed value.

What was measured:
Assay type in all cases: functional
[1] = test system: Mycobacterium tuberculosis; assay: Antitubercular activity against Mycobacterium tuberculosis H37Rv clinical isolate harboring katG S315T mutant by BACTEC 960 assay
[2] = test system: Mycobacterium tuberculosis; assay: Antitubercular activity against katG-deficient isoniazid-resistant Mycobacterium tuberculosis H37Rv ATCC 27294 by BACTEC 960 assay
[3] = test system: Mycobacterium tuberculosis; assay: Ratio of isoniazid MIC to compound MIC for Mycobacterium tuberculosis H37Rv clinical isolate harboring katG S315T mutant by BACTEC 960 assay

Row | Structure (SMILES) | MIC [1] [µM] | MIC [2] [µM] | Ratio [3]
1 | CC(=O)NNC(=O)c1ccncc1 | >55.8 | > 55.8 | 
2 | O=Cc1cccc(/C=N/NC(=O)c2ccncc2)c1 | >39.5 | > 39.5 | 
3 | O=Cc1ccc(/C=N/NC(=O)c2ccncc2)cc1 | >39.5 | > 39.5 | 
4 | O=C(N/N=C/c1cccc(CO)c1)c1ccncc1 | 39.2 (≈ 10 µg/mL) | > 39.2 | 
5 | O=C(N/N=C/c1ccc(CO)cc1)c1ccncc1 | 39.2 (≈ 10 µg/mL) | > 39.2 | 
6 | O=C(NN=C1CCCC1)c1ccncc1 | 39.4 (≈ 8.01 µg/mL) | > 49.2 | 
7 | O=C(NN=C1CCC(c2ccccc2)CC1)c1ccncc1 (stereo not given) | 34.1 (≈ 10 µg/mL) | > 34.1 | 
8 | COC(=O)c1ccc(/C=N/NC(=O)c2ccncc2)cc1 | 21.2 (≈ 6.01 µg/mL) |  | 
9 | O=C(N/N=C/c1ccc(Oc2ccccc2)cc1)c1ccncc1 | 18.9 (≈ 6 µg/mL) |  | 
10 | CCCCCCCCCC(=O)NNC(=O)c1ccncc1 | 6.9 (≈ 2.01 µg/mL) | > 34.3 | 6
11 | CCCCCC(C)C(=O)NNC(=O)c1ccncc1 (stereo not given) | >38 |  | 
12 | O=C(NNC1CCC(c2ccccc2)CC1)c1ccncc1 (stereo not given) | >33.9 | > 33.9 | 
13 | NNC(=O)c1ccnc(NN)c1 | 47.9 (≈ 8.01 µg/mL) |  | 
14 | NNC(=O)c1ccncc1 [ISONIAZID] | 43.8 (≈ 6.01 µg/mL) | > 72.9 | 
